From patent US20060069132A1, “Azolecarboxamide herbicides” (priority 2004, published 2006)

Assays:
large crabgrass = assay: Test A pre-/postemergence herbicide test; format: in vivo, Digitaria sanguinalis
Method in brief: (§1)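 Pre: seeded sandy loam, directed soil spray, compound in non-phytotoxic solvent + surfactant. Post: 1–2-leaf plants (2–10 cm), sprayed to runoff. Greenhouse ~10 d; visual injury vs untreated, 0–100 scale.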

giant foxtail = assay: Test A pre-/postemergence herbicide test; format: in vivo, Setaria faberi
Method in brief: as §1

morningglory = assay: Test A pre-/postemergence herbicide test; format: in vivo, Ipomoea spp.
Method in brief: as §1

lambsquarters [1] = assay: Test B pre-/postemergence herbicide test; format: in vivo, Chenopodium album
Method in brief: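 Herbicidal effect was judged by eye on a 0–100 scale after plants stood 13 to 15 days in the greenhouse following pre- or postemergence treatment with surfactant-containing formulations.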

johnsongrass = assay: Test C pre-/postemergence herbicide test; format: in vivo, Sorghum halepense; conditions: for Johnsongrass plant response rating: 500 g ai/ha
Method in brief: (§2)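 Visual injury scores run from 0 (no effect) to 100 (complete control), assessed relative to untreated controls 12 to 14 days after treatment in the greenhouse. Chemicals were formulated in a non-phytotoxic solvent mixture with surfactant and applied to soil after planting or to emerged plants at the 1- to 4-leaf stage.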

lambsquarters [2] = assay: Test C pre-/postemergence herbicide test; format: in vivo, Chenopodium album; conditions: for Lambsquarters plant response rating: 500 g ai/ha
Method in brief: as §2

[3] = test system: common (oilseed) sunflower; assay: Test C pre-/postemergence herbicide test; format: in vivo, Helianthus annuus; conditions: for Plant response rating, Sunflower / Plant response rating (0 = no effect, 100 = complete control), Sunflower: preemergence; for Plant response rating (0 = no effect, 100 = complete control), Sunflower: 62 g ai/ha; for Sunflower plant response rating: Preemergence, 500 g ai/ha, scale 0 to 100, 0 no effect, 100 complete control
Method in brief: as §2

[4] = Postemergence, 500 g ai/ha, 0 to 100 scale, 0 no effect, 100 complete control
[5] = Postemergence, 2000 g ai/ha, 0 to 100 scale, 0 no effect, 100 complete control
[6] = Preemergence, 500 g ai/ha, visual rating, 0 to 100 scale (0 no effect, 100 complete control)
[7] = Preemergence, 2000 g ai/ha, 0 to 100 scale, 0 no effect, 100 complete control
[8] = Postemergence, 125 g ai/ha, scale 0 (no effect) to 100 (complete control)
[9] = Postemergence, 500 g ai/ha, visual rating after 13 to 15 days, scale 0 (no effect) to 100 (complete control)
[10] = Preemergence, 500 g ai/ha, scale 0 to 100
[11] = preemergence, 125 g ai/ha, 0 to 100 scale, 0 is no effect, 100 is complete control
[12] = 31 g ai/ha, preemergence, scale 0 to 100
[13] = 125 g ai/ha, scale 0-100, preemergence
[14] = Postemergence, 125 g ai/ha, scale 0 to 100, 0 no effect, 100 complete control
[15] = postemergence, 31 g ai/ha, scale 0 to 100
[16] = postemergence, 62 g ai/ha, scale 0 to 100
[17] = postemergence, 125 g ai/ha, scale 0 to 100
[18] = 125 g ai/ha, scale 0 (no effect) to 100 (complete control), visual, 12 to 14 days, preemergence
[19] = 250 g ai/ha, scale 0 to 100 (0 no effect, 100 complete control), visual, 12 to 14 days, preemergence
[20] = Preemergence, scale 0 to 100, 0 no effect, 100 complete control
[21] = Postemergence, 250 g ai/ha, scale 0 to 100, 0 no effect, 100 complete control
[22] = 125 g ai/ha, scale 0 (no effect) to 100 (complete control), visual, 12 to 14 days
[23] = Preemergence, 2000 g ai/ha, visual rating, 0 to 100 scale (0 no effect, 100 complete control)
[24] = 500 g ai/ha, visual rating 0-100, 0 no effect, 100 complete control, preemergence
[25] = postemergence, 125 g ai/ha, visual rating, scale 0 (no effect) to 100 (complete control)

Compound	Plant response rating, Crabgrass, Large (large crabgrass; [4])	Plant response rating, Crabgrass, Large (large crabgrass; [5])	Crabgrass, Large plant response rating (large crabgrass; [6])	Crabgrass, Large plant response rating (large crabgrass; [7])	Plant response rating, Foxtail, Giant (giant foxtail; [4])	Plant response rating, Foxtail, Giant (giant foxtail; [5])	Foxtail, Giant plant response rating (giant foxtail; [6])	Plant response rating, Morningglory (morningglory; [5])	Morningglory plant response rating (morningglory; [6])	Plant response rating, Lambsquarters (lambsquarters [1]; [9])	Plant response rating, Lambsquarters (lambsquarters [1]; [11])	Plant response rating (0 = no effect, 100 = complete control), Johnsongrass (johnsongrass; 62 g ai/ha, preemergence)	Plant response rating, Johnsongrass (johnsongrass; [16])	Plant response rating (0 = no effect, 100 = complete control), Lambsquarters (lambsquarters [2]; 62 g ai/ha, preemergence)	Plant response rating, Lambsquarters (lambsquarters [2]; [17])	Plant response rating, Lambsquarters (lambsquarters [2]; [16])	Plant response rating (0 = no effect, 100 = complete control), Sunflower [3]	Plant response rating, Lambsquarters (lambsquarters [2]; [18])	Plant response rating, Lambsquarters (lambsquarters [2]; [21])	Plant response rating, Sunflower [3, 22]	also measured
C=Cn1nc(C(C)(C)C)cc1C(=O)Nc1cccc(C(=O)NCC)c1 [Compound 33]	65	85	90	95	70	85	80	25	35	90	100	20	90	100	90	90	0	–	–	–	Foxtail, Giant plant response rating (giant foxtail; [7]): 95; Plant response rating, Morningglory (morningglory; [4]): 10; Morningglory plant response rating (morningglory; [7]): 70; Lambsquarters plant response rating (lambsquarters [1]; [8]): 90; Lambsquarters plant response rating (lambsquarters [1]; [10]): 100; Plant response rating, Johnsongrass (johnsongrass; [12]): 20; Plant response rating, Johnsongrass (johnsongrass; [13]): 80; Plant response rating, Johnsongrass (johnsongrass; [14]): 90; Plant response rating, Johnsongrass (johnsongrass; [15]): 70; Plant response rating, Lambsquarters (lambsquarters [2]; [12]): 80; Plant response rating, Lambsquarters (lambsquarters [2]; [13]): 100; Plant response rating, Lambsquarters (lambsquarters [2]; [15]): 90; Plant response rating, Sunflower ([3]; 31 g ai/ha, scale 0 to 100): 0
C=CCNC(=O)c1cccc(NC(=O)c2cc(C(C)(C)C)nn2CC)c1 [Compound 46]	75	90	65	90	80	100	90	65	40	90	100	50	60	100	–	80	0	100	100	10	Foxtail, Giant plant response rating (giant foxtail; [7]): 100; Plant response rating, Morningglory (morningglory; [4]): 40; Morningglory plant response rating (morningglory; [7]): 65; Lambsquarters plant response rating (lambsquarters [1]; [8]): 80; Lambsquarters plant response rating (lambsquarters [1]; [10]): 100; Plant response rating, Johnsongrass (johnsongrass; [18]): 80; Plant response rating, Johnsongrass (johnsongrass; [19]): 90; Johnsongrass plant response rating (johnsongrass; Postemergence, scale 0 to 100): 90; Plant response rating, Johnsongrass (johnsongrass; [14]): 60; Johnsongrass plant response rating (johnsongrass; [20]): 100; Plant response rating, Lambsquarters (lambsquarters [2]; [19]): 100; Lambsquarters plant response rating (lambsquarters [2]; Postemergence, scale 0 to 100): 100; Lambsquarters plant response rating (lambsquarters [2]; [20]): 100; Plant response rating, Sunflower ([3]; 250 g ai/ha, scale 0 to 100 (0 no effect, 100 complete control), visual, 12 to 14 days): 10; Sunflower plant response rating [3]: 10
C=Cn1nc(C(C)(C)C)cc1C(=O)Nc1cccc(C(C)=NO)c1 [Compound 114]	–	60	40	–	–	55	30	25	35	90	100	20	70	80	90	90	30	100	100	30	Crabgrass, Large plant response rating (large crabgrass; [4]): 40; Crabgrass, Large plant response rating (large crabgrass; [23]): 85; Foxtail, Giant plant response rating (giant foxtail; [4]): 50; Foxtail, Giant plant response rating (giant foxtail; [23]): 45; Morningglory plant response rating (morningglory; [4]): 10; Morningglory plant response rating (morningglory; [23]): 70; Plant response rating, Lambsquarters (lambsquarters [1]; [24]): 100; Lambsquarters plant response rating (lambsquarters [1]; [25]): 80; Plant response rating, Johnsongrass (johnsongrass; [12]): 0; Plant response rating, Johnsongrass (johnsongrass; [18]): 30; Plant response rating, Johnsongrass (johnsongrass; [21]): 70; Plant response rating, Johnsongrass (johnsongrass; [17]): 70; Plant response rating, Lambsquarters (lambsquarters [2]; [12]): 40; Plant response rating, Sunflower ([3]; 31 g ai/ha, scale 0 to 100): 30
CCn1nc(C(C)(C)C)cc1C(=O)Nc1cccc(SC(F)(F)F)c1 [Compound 130]	–	20	45	–	–	10	50	25	10	–	0	–	–	10	100	–	0	30	100	0	Crabgrass, Large plant response rating (large crabgrass; [4]): 20; Crabgrass, Large plant response rating (large crabgrass; [23]): 60; Foxtail, Giant plant response rating (giant foxtail; [4]): 10; Foxtail, Giant plant response rating (giant foxtail; [23]): 55; Morningglory plant response rating (morningglory; [4]): 20; Morningglory plant response rating (morningglory; [23]): 15; Plant response rating, Lambsquarters (lambsquarters [1]; [24]): 70; Lambsquarters plant response rating (lambsquarters [1]; [25]): 90; Lambsquarters plant response rating (lambsquarters [1]; postemergence, 500 g ai/ha, visual rating, scale 0 (no effect) to 100 (complete control)): 100; Johnsongrass plant response rating (johnsongrass; Postemergence, scale 0 to 100): 40; Plant response rating, Johnsongrass (johnsongrass; [21]): 30; Johnsongrass plant response rating (johnsongrass; [20]): 80; Plant response rating, Johnsongrass (johnsongrass; [17]): 10; Lambsquarters plant response rating (lambsquarters [2]; Postemergence, scale 0 to 100): 100; Lambsquarters plant response rating (lambsquarters [2]; [20]): 80; Sunflower plant response rating [3]: 0
